These results are taken from patent publication US7183268B2, “2-amino-9-[(2-hydroxymethyl) cyclopropylidenemethyl] purine antiviral agents” (Wayne State University, priority 2002, dated 2007).

Assay [1] relates to HSV-1. Briefly: HSV-1 ELISA in BSC-1 cells. The class given is cell-based. The procedure: (§1) Cells and viruses. The routine growth and passage of KB cells was performed in monolayer cultures using minimal essential medium (MEM) with either Hanks salts [MEM(H)] or Earle salts [MEM(E)] supplemented with 10% calf serum. The sodium bicarbonate concentration was varied to meet the buffering capacity required. Cultures of diploid human foreskin fibroblasts (HFF) or MRC-5 cells were grown in medium consisting of MEM(E) with 10% fetal bovine serum. Cells were passaged at 1:2 to 1:10 dilutions according to conventional procedures by using 0.05% trypsin plus 0.02% EDTA in a HEPES buffered salt solution (HBS) (Shipman, C., Jr., Proc. Soc. Exp. Biol. 130:305–310 (1969)) as described previously. (Turk, S. R., et al., Antimicrob. Agents Chemother. 31:544–550 (1987). HFF and MRC-5 cells were passaged only at 1:2 dilutions.
(§2) Virological procedures. Stock HCMV was prepared by infecting HFF cells at a multiplicity of infection (m.o.i.) of <0.01 plaque-forming units (p.f.u.) per cell. Cell growth medium was changed every four days until cytopathology was evident in all cells (approximately 21 days). Supernatant fluids were retained as the virus stock. High titer HSV-1 stocks were prepared by infecting KB cells at an m.o.i. of <0.1 as detailed previously. (Turk, S. R., et al., Antimicrob. Agents Chemother. 31:544–550 (1987). Virus titers were determined using monolayer cultures of HFF cells for HCMV and monolayer cultures of BSC-1 cells for HSV-1 as described earlier. (Prichard, M. N. et al., J. Virol. Methods 28:101–106 (1990). Briefly, HFF or BSC-1 cells were planted as described above in 96-well cluster dishes and incubated overnight at 37° C. in a humidified 3% CO2–97% air atmosphere. The next day cultures were inoculated with HCMV or HSV-1 and serially diluted 1:3 across the remaining eleven columns of the 96-well plate. Cultures were incubated at 37° C. for 2 hr to permit virus adsorption and then virus inoculum was replaced with 0.2 mL of fresh medium. Cultures were incubated for seven days for HCMV, two or three days for HSV-1, medium was removed, and the cell sheets were stained with 0.1% crystal violet in 20% methanol. Plaques were enumerated under 20-fold magnification in wells having the dilution which gave 5 to 20 plaques per well. Virus titers were calculated according to the following formula: Titer (p.f.u./mL)=number of plaques×5×3^n; where n represents the nth dilution of the virus used to infect the well in which plaques were enumerated.
Assays for Antiviral Activity. (b) HSV-1. An enzyme-linked immunosorbent assay (ELISA) was employed to detect HSV-1. 96-well cluster dishes were planted with BSC-1 cells at 10,000 cells per well, in a total volume of 200 μL per well of MEM(E) plus 10% calf serum. After overnight incubation at 37° C., drug and HSV-1 was added at the rate of 100 PFU/well. ELISA plates were blocked with 200 μL per well of 10% calf serum and 0.05% tween in HBS. After incubation for 30 minutes, the blocking agent was rinsed two times with HBS-T. A 1:400 dilution of AP conjugated rabbit anti-HSV-1 antibody in HBS-F was added. Plates were sealed with adhesive sheet, and incubated on rocker for one hour at 37° C. Plates were developed in the dark with 100 μL per well of substrate solution containing p-nitrophenyl phosphate. Plates were read at 492 nm. Drug effects were calculated as a percentage of the reduction in virus in the presence of each drug concentration compared to the titer obtained in the absence of drug. Acyclovir was used as a positive control in all experiments.
Data Analysis. Dose-response relationships were constructed by linearly regressing the percent inhibition of parameters derived in the preceding sections against log drug concentrations. Fifty-percent inhibitory (IC50) concentrations were calculated from the regression lines. Samples containing positive controls (acyclovir for HSV-1, ganciclovir for HCMV, and 2-acetylpyridine thiosemicarbazone for cytotoxicity) were used in all assays. […]
(In general: An ELISA detects its analyte on a solid surface through an enzyme-linked reagent.)

Assay [2] concerns Growing KB cells. Briefly: Cytotoxicity in growing KB cells (crystal violet staining). The class given is cell-based. The procedure:
as §1
(§3) Cytotoxicity assays. Two different assays were used to explore cytotoxicity of selected compounds as we have detailed previously. (i) Cytotoxicity produced in stationary HFF cells was determined by microscopic inspection of cells used in plaque assays which were not affected by the virus. (ii) The effect of compounds during two population doublings of KB cells was determined by crystal violet staining and spectrophotometric quantitation of dye eluted from stained cells. (Turk, S. R., et al., Antimicrob. Agents Chemother. 35:1060–1065 (1991).
(§4) Data Analysis. Dose-response relationships were constructed by linearly regressing the percent inhibition of parameters derived in the preceding sections against log drug concentrations. Fifty-percent inhibitory (IC50) concentrations were calculated from the regression lines. Samples containing positive controls (acyclovir for HSV-1, ganciclovir for HCMV, and 2-acetylpyridine thiosemicarbazone for cytotoxicity) were used in all assays. Results from sets of assays were rejected if inhibition by the positive control deviated from its mean response by >±1.5 standard deviations.

In assay [3] the test system is HCMV. Put plainly: HCMV plaque reduction assay in HFF cells. The assay is classed as cell-based. The procedure:
as §1, §2
Assays for Antiviral Activity. (a) HCMV. The effect of compounds on the replication of HCMV has been measured using a plaque reduction assay. HFF cells in 24-well cluster dishes were infected with approximately 100 p.f.u. of HCMV per cm^2 cell sheet using the procedures detailed above. Following virus adsorption, compounds dissolved in growth medium were added to duplicate wells in three to six selected concentrations. Following incubation at 37° C. for 7 to 10 days, cell sheets were fixed, stained with crystal violet and microscopic plaques enumerated as described above. Drug effects were calculated as a percentage of reduction in number of plaques in the presence of each drug concentration compared to the number observed in the absence of drug. Ganciclovir (GCV) was used as a positive control in all experiments.
as §4

Assay [4] deals with Stationary HFF cells. Briefly: Cytotoxicity in stationary HFF cells (microscopic inspection). The assay is classed as cell-based, human. The procedure: as §1, §3, §4

By IC50 is commonly meant the concentration needed to halve the response being measured. High values mean weaker potency, low ones greater potency.

Like-named read-outs stand apart in the source and are kept apart here.

Turning to `Nc1nc2c(ncn2COCCO)c(=O)[nH]1` [Acyclovir, reference compound], the IC50 was 0.15 µM in assay [1] (Human alphaherpesvirus 1) and above 100 µM in assay [2] (Homo sapiens).
For `C=CCNc1nc(N)nc2c1ncn2/C=C1/C[C@@H]1CO` [Compound 6, (Z,S)-(+)-2-Amino-6-allylamino-9-[(2-hydroxymethyl)cyclopropylidenemethyl]purine], the IC50 in assay [3] (HFF host cells) is 1.8 µM; in assay [1], 4 µM; in assay [4] it was above 100 µM; in assay [2] it was above 100 µM.
`C#CCNc1nc(N)nc2c1ncn2/C=C1/C[C@@H]1CO` [Compound 7, (Z,S)-(+)-2-Amino-6-propargylamino-9-[(2-hydroxymethyl)-cyclopropylidenemethyl]purine]: the half-maximal inhibitory concentration (IC50) was 3.5 µM in assay [3] (HFF host cells), 6 µM in assay [1], above 100 µM in assay [4] and above 100 µM in assay [2].
Regarding `Nc1nc(NCC2CC2)c2ncn(/C=C3/C[C@@H]3CO)c2n1` [Compound 8, (Z,S)-(+)-2-Amino-6-cyclopropylmethylamino-9-[(2-hydroxymethyl)cyclopropylidenemethyl]purine], the IC50 was 3.8 µM in assay [3] (HFF host cells), 2.5 µM in assay [1], above 100 µM in assay [4] and above 100 µM in assay [2].
For `CC(C)Nc1nc(N)nc2c1ncn2/C=C1/C[C@@H]1CO` [Compound 9, (Z,S)-(+)-2-Amino-6-isopropylamino-9-[(2-hydroxymethyl)-cyclopropylidenemethyl]purine], the half-inhibitory concentration (IC50) in assay [3] (HFF host cells) was 3.8 µM; in assay [1] it was 15 µM; in assay [4] it was above 100 µM; in assay [2], above 100 µM.
For `Nc1nc(NCc2ccccc2)c2ncn(/C=C3/C[C@@H]3CO)c2n1` [Compound 10, (Z,S)-(+)-2-Amino-6-benzylamino-9-[(2-hydroxymethyl)cyclopropylidenemethyl]purine], the IC50 in assay [3] (HFF host cells) was above 100 µM; in assay [1] it was 25 µM; in assay [4] it was above 100 µM; in assay [2] it was above 100 µM.
For `Nc1nc(NC2CCCCC2)c2ncn(/C=C3/C[C@@H]3CO)c2n1` [Compound 11, (Z,S)-(+)-2-Amino-6-cyclohexylamino-9-[(2-hydroxymethyl)-cyclopropylidenemethyl]purine], the IC50 was above 100 µM in assay [3] (HFF host cells), 15 µM in assay [1], above 100 µM in assay [4] and above 100 µM in assay [2].
`Nc1nc(NCCO)c2ncn(/C=C3/C[C@@H]3CO)c2n1` [Compound 12, (Z,S)-(+)-2-Amino-6-(2-hydroxy)ethylamino-9-[(2-hydroxymethyl)cyclopropylidenemethyl]purine]: the half-maximal inhibitory concentration (IC50) in assay [3] (HFF host cells) was 39 µM; in assay [1], above 100 µM; in assay [4] it was above 100 µM; in assay [2] it was above 100 µM.
Consider `CCCOc1nc(N)nc2c1ncn2/C=C1/C[C@@H]1CO` [Compound 13a, (Z,S)-(+)-2-Amino-6-propoxy-9-[(2-hydroxymethyl)cyclopropylidenemethyl]purine], for which the IC50 was 0.26 µM in assay [3] (HFF host cells), 1 µM in assay [1], above 100 µM in assay [4] and above 100 µM in assay [2].
Turning to `CCCCCOc1nc(N)nc2c1ncn2/C=C1/C[C@@H]1CO` [Compound 13b, (Z,S)-(+)-2-Amino-6-pentyloxy-9-[(2-hydroxymethyl)cyclopropylidenemethyl]purine], the 50% inhibitory concentration (IC50) was 0.21 µM in assay [3] (HFF host cells), 7 µM in assay [1], above 100 µM in assay [4] and above 100 µM in assay [2].
On to `C=CCOc1nc(N)nc2c1ncn2/C=C1/C[C@@H]1CO` [Compound 14, (Z,S)-(+)-2-Amino-6-allyloxy-9-[(2-hydroxymethyl)cyclopropylidenemethyl]purine], for which the IC50 is 0.33 µM in assay [3] (HFF host cells), 1.5 µM in assay [1], above 100 µM in assay [4] and above 100 µM in assay [2].
For the compound `Nc1nc(OCC2CC2)c2ncn(/C=C3/C[C@@H]3CO)c2n1` [Compound 15, (Z,S)-(+)-2-Amino-6-cyclopropylmethoxy-9-[(2-hydroxymethyl)cyclopropylidenemethyl]purine], the IC50 is 0.32 µM in assay [3] (HFF host cells), 7 µM in assay [1], above 100 µM in assay [4] and above 100 µM in assay [2].
For `CCCSc1nc(N)nc2c1ncn2/C=C1/C[C@@H]1CO` [Compound 16a, (Z,S)-(+)-2-Amino-6-propylthio-9-[(2-hydroxymethyl)cyclopropylidenemethyl]purine], the IC50 was 0.22 µM in assay [3] (HFF host cells), 1 µM in assay [1], above 100 µM in assay [4] and above 100 µM in assay [2].
With `CCCCCSc1nc(N)nc2c1ncn2/C=C1/C[C@@H]1CO` [Compound 16b, (Z,S)-(+)-2-Amino-6-pentylthio-9-[(2-hydroxymethyl)cyclopropylidenemethyl]purine], the concentration for half-maximal inhibition (IC50) in assay [3] (HFF host cells) was 0.32 µM; in assay [1] it was 7 µM; in assay [4], above 100 µM; in assay [2], above 100 µM.
Turning to `Nc1nc(S)c2ncn(/C=C3/C[C@@H]3CO)c2n1` [Compound 17, (Z,S)-(+)-2-Amino-6-thio-9-[(2-hydroxymethyl)cyclopropylidenemethyl]purine], the half-inhibitory concentration (IC50) was 37 µM in assay [3] (HFF host cells), above 100 µM in assay [1], above 100 µM in assay [4] and above 100 µM in assay [2].
Regarding `Nc1ncc2ncn(/C=C3/C[C@@H]3CO)c2n1` [Compound 18, (Z,S)-(+)-2-Amino-9-[(2-hydroxymethyl)cyclopropylidenemethyl]purine], the half-inhibitory concentration (IC50) in assay [3] (HFF host cells) is above 100 µM; in assay [1], 35 µM; in assay [4], above 100 µM; in assay [2], above 100 µM.
`Nc1nc(O)c2ncn(COC(CO)CO)c2n1` [Ganciclovir, reference compound]: the 50% inhibitory concentration (IC50) is 4.1 µM in assay [3] (Human betaherpesvirus 5, HFF host cells) and above 100 µM in assay [4] (Homo sapiens).
